Experimental data from article PMC7504466, “In-Vitro and In-Silico Evaluations of Heterocyclic-Containing Diarylpentanoids as Bcl-2 Inhibitors Against LoVo Colorectal Cancer Cells” (Molecules, 2020).

Key:
T84 cells = test: MTT cytotoxicity assay, T84 cells; format: cell-based; conditions: Homo sapiens, 72 h post-treatment, read-out: IC50 (µM) KRAS T84
Description: (§1) The in-vitro cytotoxic activity of the synthesized compounds on seven human CRC cell lines including KRAS (T84, SW620, LoVo) and BRAF (HT29, NCI-H508, RKO and LS411N) mutated cells were determined by MTT assay as previously described. The IC50 values obtained are summarized in Table 2 in which 5-FU and normal human dermal fibroblasts (NHDF) were used as controls. Meanwhile, a heatmap (Figure 3) was also generated using GraphPad Prism v7.0 (GraphPad Software, La Jolla, CA, USA) to visualize the cytotoxic trends of synthesized compounds graphically.
(§2) A panel of KRAS (T84, SW620 and LoVo) and BRAF (HT29, NCI-H508, RKO and LS411N) mutated human CRC cell lines were grown in Dulbecco’s modified Eagle’s medium (DMEM) containing 10% fetal bovine serum (FBS) and 1% penicillin/streptomycin at 37 °C under 5% CO2 while NHDF cells were cultured in DMEM with 5% FBS under the same condition. The culture medium was replenished every two days until the cells reached 80–90% confluency for further usage. All cell lines (T84, ATCC®CCL-248™; SW620, ATCC®CCL-227™; LoVo, ATCC®CCL-229™; HT-29, ATCC®HTB-38; NCI-H508, ATCC®CCL-253™; RKO, ATCC®CRL-2577; LS411N, ATCC®CRL-2159; NHDF, ATCC® PCS-201-010™) were purchased from American Type culture Collections (ATCC, Manassas, VA, USA).
(§3) LoVo cells (1.5–5 × 10^3 cells/well) were seeded into a 96 well plate and incubated at 37 °C and 5% CO2 atmosphere for 24 h. On the following day, the cell media were replaced with 100 µL of test compounds at various concentration. The final concentration of DMSO in the well is 0.1%. After 72 h of incubation, culture medium was removed and 100 µL of MTT (thiazoyl blue tertrazolium bromide) solution (0.5 mg/mL in culture media) was added. The resultant plates were then further incubated at 37 °C for 4 h. Upon completion, the MTT solution was removed and the formazan salts formed were dissolved in 100 µL of DMSO. The absorbance was recorded with a microplate reader at 570 nm. The IC50 values of tested compounds were calculated from three independent experiments.

SW620 cells = test: MTT cytotoxicity assay, SW620 cells; format: cell-based; conditions: Homo sapiens, SW-620, 72 h post-treatment, read-out: IC50 (µM) KRAS SW620
Description: as §1, §2, §3

LoVo cells [1] = test: MTT cytotoxicity assay, LoVo cells; format: cell-based; conditions: Homo sapiens, 72 h post-treatment, read-out: IC50 (µM) KRAS LoVo
Description: as §1, §2, §3

RKO cells = test: MTT cytotoxicity assay, RKO cells; format: cell-based; conditions: Homo sapiens, 72 h post-treatment, read-out: IC50 (µM) BRAF RKO
Description: as §1, §2, §3

LS411N cells = test: MTT cytotoxicity assay, LS411N cells; format: cell-based; conditions: Homo sapiens, LS-411N, 72 h post-treatment, read-out: IC50 (µM) BRAF LS411N
Description: as §1, §2, §3

LoVo cells [2] = test: Morphological inspection; format: cell-based, human; conditions: 0.625-5 µM, 24 h post-treatment
Description: LoVo cells (5 × 10^4 cells/well) were seeded into a 12 well plate and incubated at 37 °C and 5% CO2 atmosphere for 24 h. Next, the culture media were replaced with 1 mL of test compounds at various concentration and further incubated for 24 h. The final concentration of DMSO in the well is 0.1%. The morphological changes of compound-treated cells were photographed using a fluorescent microscope.

LoVo cells [3] = test: Colony formation assay; format: cell-based, human; conditions: 0.625-5 µM, 7 days post-treatment
Description: LoVo cells (1 × 10^3 cells/well) were seeded into a 6-well plate and incubated at 37 °C and 5% CO2 atmosphere overnight. After incubation, the culture media were replaced with 3 mL of test compounds at various concentration and further incubated for seven days. Upon completion, cells were washed with PBS and fixed with 4% paraformaldehyde for 15 min followed by cell staining with 0.5% (w/v) crystal violet for 20 min. The resultant plates were then washed with tap water and dried at room temperature. Upon drying, the plate image was photographed.

cleaved PARP = test: Western blot, cleaved PARP; format: cell-based, human; conditions: 5 µM, LoVo cells, after 24 h
Description: (§4) Lovo cells (1.5 × 10^4 cells/cm^2) were seeded in a T75 flask and incubated at 37 °C and 5% CO2 atmosphere overnight. The seeded cells were then treated with selected compounds at 5 µM of 2e for 24 h, 48 h, and 72 h. After treatment, the cells were harvested and lysed with phenylmethanesulfonyl fluoride (PMSF)-containing cell lysis buffer. The lysates were then centrifuged at 13,300× g for 15 min and the supernatant was collected. Protein concentrations of all samples were determined using a BCA assay kit (Thermo Scientific Inc., Waltham, MA, USA). Equal amounts of protein were electrophoresed in 12% and 20% SDS-polyacrylamide gel (SDS-PAGE), and electro-transferred onto a 0.22-μm polyvinyldene difluoride membrane. Each membrane was blocked with 5% (w/v) skim milk at room temperature for 1 h followed by overnight incubation with specific primary antibodies (1:1000) at 4 °C. Subsequently, the respective membrane was washed thrice with TBST (0.05% (v/v) of tween-20) followed by 1 h incubation with secondary antibody (1:10,000). Upon completion, the membrane was washed thrice with 1X Tris-Buffered Saline, 0.1% Tween® 20 Detergent (TBST) and the immune reactive bands were developed using SuperSignal West Dura Extended Duration Substrate (Thermo Scientific Inc., Waltham, MA, USA). […]

Bad = test: Western blot, Bad; format: cell-based, human; conditions: 5 µM, LoVo cells, detectable only after 48 h
Description: as §4

Bax = test: Western blot, Bax; format: cell-based, human; conditions: 5 µM, LoVo cells, detectable only after 48 h
Description: as §4

Mcl-1 = test: Western blot, Mcl-1; format: cell-based, human; conditions: 5 µM, LoVo cells, up to 72 h
Description: as §4

## O=C1C(=Cc2ccccc2Br)CSCC1=Cc1ccccc1Br [Compound 2e, 3,5-Bis(2-bromobenzylidene)tetrahydro-4H-thiopyran-4-one]
T84 cells
  IC50: 1.6 µM
SW620 cells
  IC50: 1.4 µM
LoVo cells [1]
  IC50: 1 µM
RKO cells
  IC50: 1.2 µM
LS411N cells
  IC50: 1.3 µM
LoVo cells [2]
  morphology of treated LoVo cells: shrink from an epithelial-like shape to a round shape
LoVo cells [3]
  colony formation of LoVo cells: inhibit the colony formation of LoVo cells in a dose-dependent manner
Cleaved PARP
  cleaved PARP level: increased
Bad
  Bad expression: up-regulation
Bax
  Bax expression: up-regulation
Mcl-1
  Mcl-1 expression: remained unaffected
